Assay results from ChEMBL document CHEMBL4651402, “Screening of ~5500 FDA-approved drugs and clinical candidates for anti-SARS-CoV-2 activity” (2021).

Test system: SARS-CoV-2
Experiment: microbe, parasite or virus in culture
Conditions: Severe acute respiratory syndrome coronavirus 2, Vero C1008, 48 h

Row | SMILES | IC50 [µM] | IC50 (read-out: pIC50 (converted)) [µM]
1 | CC(=O)Nc1ccc(/C=N/NC(N)=S)cc1 [AMITHIOZONE] | > 20 | > 20
2 | CN(C)CCC=C1c2ccccc2CCc2ccccc21 [AMITRIPTYLINE] | > 20 | > 20
3 | CCOC(=O)C1=C(COCCN)NC(C)=C(C(=O)OC)C1c1ccccc1Cl (stereo not given) [AMLODIPINE] | > 20 | > 20
4 | CCC1(CCC(C)C)C(=O)NC(=O)NC1=O [AMOBARBITAL] | > 20 | > 20
5 | CCN(CC)Cc1cc(Nc2ccnc3cc(Cl)ccc23)ccc1O [AMODIAQUINE] | > 20 | > 20
6 | COc1cc(C(=O)OC(COCCC(C)C)CN2CCOCC2)cc(OC)c1OC (stereo not given) [AMOPROXAN] | > 20 | > 20
7 | CCC(C)(C)c1ccc(CC(C)CN2C[C@@H](C)O[C@@H](C)C2)cc1 (stereo not given in full) [AMOROLFINE] | > 20 | > 20
8 | Clc1ccc2c(c1)C(N1CCNCC1)=Nc1ccccc1O2 [AMOXAPINE] | > 20 | > 20
9 | CC1(C)S[C@@H]2[C@H](NC(=O)[C@H](N)c3ccc(O)cc3)C(=O)N2[C@H]1C(=O)O [AMOXICILLIN] | > 20 | > 20
10 | CCNC(=O)N1CCN(CCCC(c2ccc(F)cc2)c2ccc(F)cc2)CC1 [AMPEROZIDE] | > 20 | > 20
11 | CC1(C)S[C@@H]2[C@H](NC(=O)[C@H](N)c3ccccc3)C(=O)N2[C@H]1C(=O)O [AMPICILLIN] | > 20 | > 20
12 | CCOC(=O)OC(C)OC1=C(C(=O)Nc2ccccn2)N(C)S(=O)(=O)c2ccccc21 (stereo not given) [AMPIROXICAM] | > 20 | > 20
13 | CCN(CC)CC(C)(C)COC(=O)C(CO)c1ccccc1 (stereo not given) [AMPROTROPINE] | > 20 | > 20
14 | CCCc1cc2c(O)c(C(=O)OC)cnc2cc1N(CC)CC [AMQUINATE] | > 20 | > 20
15 | CC(=O)[C@]1(N)Cc2c(O)c3c(c(O)c2[C@@H](O[C@H]2C[C@H](O)[C@H](O)CO2)C1)C(=O)c1ccccc1C3=O [AMRUBICIN] | > 20 | > 20
16 | COc1cc(NS(C)(=O)=O)ccc1Nc1c2ccccc2nc2ccccc12 [AMSACRINE] | > 20 | > 20
17 | S=C(NCc1ccc2c(c1)OCO2)N1CCN(c2ncnc3c2oc2ccccc23)CC1 [AMUVATINIB] | > 20 | > 20
18 | CCC(C)(C)O [AMYLENE HYDRATE] | > 20 | > 20
19 | CCCCCc1ccc(C)cc1O [AMYLMETACRESOL] | > 20 | > 20
20 | CCC(C)(CN(C)C)OC(=O)c1ccccc1 (stereo not given) [AMYLOCAINE] | > 20 | > 20
21 | CCCC(=O)OCOC(=O)C(C)(C)C [AN-9] | > 20 | > 20
22 | c1cncc([C@@H]2CCCCN2)c1 [ANABASINE] | > 20 | > 20
23 | COc1cc(F)c(C(C)C)cc1-c1ccc(C(F)(F)F)cc1CN1C(=O)O[C@H](c2cc(C(F)(F)F)cc(C(F)(F)F)c2)[C@@H]1C [ANACETRAPIB] | > 20 | > 20
24 | O=C1CN2Cc3c(ccc(Cl)c3Cl)N=C2N1 [ANAGRELIDE] | > 20 | > 20
25 | CCCCC/C=C\C/C=C\C/C=C\C/C=C\CCCC(=O)NCCO [ANANDAMIDE] | > 20 | > 20
26 | N=c1ccn2c(n1)O[C@H]1[C@H](O)[C@@H](CO)O[C@H]12 [ANCITABINE] | > 20 | > 20
27 | C[C@]12CCC(=O)C=C1CC[C@@H]1[C@@H]2CC[C@]2(C)C(=O)CC[C@@H]12 [ANDROSTENEDIONE] | > 20 | > 20
28 | COc1ccc(-c2cc(=S)ss2)cc1 [ANETHOLTRITHION] | > 20 | > 20

Row | SMILES | IC50 [µM] | IC50 (read-out: pIC50 (converted)) [µM]
29 | CCOC(=O)C1(c2ccccc2)CCN(CCc2ccc(N)cc2)CC1 [ANILERIDINE] | > 20 | > 20
30 | COc1ccc(C2C(=O)c3ccccc3C2=O)cc1 [ANISINDIONE] | > 20 | > 20
31 | COc1ccc(C[C@H]2NC[C@H](O)[C@H]2OC(C)=O)cc1 [ANISOMYCIN] | > 20 | > 20
32 | COc1ccccc1N1CCN(CCCC(O)c2ccc(F)cc2)CC1 (stereo not given) [ANISOPIROL] | > 20 | > 20
33 | CCCC(CCC)C(=O)O[C@H]1C[C@H]2CC[C@@H](C1)[N+]2(C)C [ANISOTROPINE] | > 20 | > 20
34 | COc1ccc(-c2nnc(C)nc2-c2ccc(OC)cc2)cc1 [ANITRAZAFEN] | > 20 | > 20
35 | c1ccc(CN(CC2=NCCN2)c2ccccc2)cc1 [ANTAZOLINE] | > 20 | > 20
36 | Cc1cc(=O)n(-c2ccccc2)n1C [ANTIPYRINE] | > 20 | > 20
37 | COc1cc(OC)c2c(=O)[nH]c(-c3cc(C)c(OCCO)c(C)c3)nc2c1 [APABETALONE] | > 20 | > 20
38 | CCNC(=O)[C@H]1O[C@@H](n2cnc3c(N)nc(C#CC[C@H]4CC[C@H](C(=O)OC)CC4)nc32)[C@H](O)[C@@H]1O [APADENOSON] | > 50.1 | > 50.1
39 | CNC(=O)c1ccc(N2C(=S)N(c3cnc(C#N)c(C(F)(F)F)c3)C(=O)C23CCC3)cc1F [APALUTAMIDE] | > 20 | > 20
40 | CCCC1C(=O)N2C(N(C)C)=Nc3ccc(C)cc3N2C1=O (stereo not given) [APAZONE] | > 20 | > 20
41 | O=c1cc(-c2ccc(O)cc2)oc2cc(O)cc(O)c12 [APIGENIN] | > 20 | > 20
42 | Cc1cccc(/C=N/Nc2cc(N3CCOCC3)nc(OCCc3ccccn3)n2)c1 [APILIMOD] | > 20 | > 20
43 | C=CCc1cc(OC)c2c(c1OC)OCO2 [APIOL] | > 20 | > 20
44 | Cc1c(CN2CCN(C(=O)[C@H](C)O)CC2)sc2c(N3CCOCC3)nc(-c3cnc(N)nc3)nc12 [APITOLISIB] | > 20 | > 20
45 | COc1ccc(-n2nc(C(N)=O)c3c2C(=O)N(c2ccc(N4CCCCC4=O)cc2)CC3)cc1 [APIXABAN] | > 20 | > 20
46 | COc1cc(C(C)=O)ccc1O [APOCYNIN] | > 20 | > 20
47 | CN1CCc2cccc3c2[C@H]1Cc1ccc(O)c(O)c1-3 [APOMORPHINE] | > 20 | > 20
48 | Nc1cc(Cl)c(N=C2NCCN2)c(Cl)c1 [APRACLONIDINE] | > 20 | > 20
49 | C[C@@H](O[C@H]1OCCN(Cc2n[nH]c(=O)[nH]2)[C@H]1c1ccc(F)cc1)c1cc(C(F)(F)F)cc(C(F)(F)F)c1 [APREPITANT] | > 20 | > 20
50 | C=CCC1(C(C)C)C(=O)NC(=O)NC1=O [APROBARBITAL] | > 20 | > 20
51 | CCN(CC)CCOC(=O)C(C)(c1ccccc1)c1ccccc1 [APROFENE] | > 20 | > 20
52 | O=c1ccn([C@@H]2O[C@H](CO)[C@@H](O)[C@@H]2O)c(=O)[nH]1 [ARAURIDINE] | > 20 | > 20
53 | OC[C@H]1O[C@@H](Oc2ccc(O)cc2)[C@H](O)[C@@H](O)[C@@H]1O [ARBUTIN] | > 20 | > 20
54 | N=C(N)NCCCCNC(=N)N [ARCAINE] | > 20 | > 20
55 | COC(=O)C1=CCCN(C)C1 [ARECOLINE] | > 20 | > 20
